Assay results from ChEMBL document CHEMBL5608211, “Antibody-drug conjugates for targeted cancer therapy: Recent advances in potential payloads” (Eur J Med Chem, 2024).

Assays:
[1] = tested on: EMT6; assay: Cytotoxicity against mouse EMT6 cells assessed as inhibition of cell growth incubated for 3 days by SRB assay; assay type: functional, cell-based; conditions: EMT6, 72 h
[2] = tested on: DLD-1; assay: Antiproliferative activity against human DLD-1 cells assessed as inhibition of cell growth incubated for 3 to 4 days; assay type: functional, cell-based
[3] = tested on: ACHN; assay: Cytotoxicity against human ACHN cells assessed as cell growth inhibition by measuring lethal concentration by MTT assay; assay type: functional; conditions: read-out: LC50 (the source's name)
[4] = tested on: MOLT-4; assay: Cytotoxicity against human MOLT-4 cells assessed as cell growth inhibition by measuring lethal concentration by MTT assay; assay type: functional; conditions: read-out: LC50 (the source's name)
[5] = tested on: SF-268; assay: Cytotoxicity against human SF-268 cells assessed as cell growth inhibition by measuring lethal concentration by MTT assay; assay type: functional; conditions: read-out: LC50 (the source's name)
[6] = tested on: T47D; assay: Cytotoxicity against human T47D cells assessed as cell growth inhibition by measuring lethal concentration by MTT assay; assay type: functional; conditions: read-out: LC50 (the source's name)
[7] = tested on: SW-620; assay: Cytotoxicity against human SW620 cells assessed as cell growth inhibition by measuring lethal concentration by MTT assay; assay type: functional; conditions: read-out: LC50 (the source's name)
[8] = tested on: CAKI-1; assay: Cytotoxicity against human CAKI-1 cells assessed as cell growth inhibition by measuring lethal concentration by MTT assay; assay type: functional; conditions: read-out: LC50 (the source's name)
[9] = tested on: RPMI-8226; assay: Cytotoxicity against human RPMI-8226 cells assessed as cell growth inhibition by measuring lethal concentration by MTT assay; assay type: functional; conditions: read-out: LC50 (the source's name)
[10] = tested on: HL-60; assay: Cytotoxicity against human HL-60 cells assessed as cell growth inhibition by measuring lethal concentration by MTT assay; assay type: functional; conditions: read-out: LC50 (the source's name)
[11] = tested on: U-251; assay: Cytotoxicity against human U-251 cells assessed as cell growth inhibition by measuring lethal concentration by MTT assay; assay type: functional; conditions: read-out: LC50 (the source's name)
[12] = tested on: SK-MEL-28; assay: Cytotoxicity against human SK-MEL-28 cells assessed as cell growth inhibition by measuring lethal concentration by MTT assay; assay type: functional; conditions: read-out: LC50 (the source's name)
[13] = tested on: PC-3; assay: Cytotoxicity against human PC-3 cells assessed as cell growth inhibition by measuring lethal concentration by MTT assay; assay type: functional; conditions: read-out: LC50 (the source's name)
[14] = tested on: NCI/ADR-RES; assay: Cytotoxicity against human MCF7ADR cells assessed as cell growth inhibition by measuring lethal concentration by MTT assay; assay type: functional; conditions: read-out: LC50 (the source's name)
[15] = tested on: A498; assay: Cytotoxicity against human A498 cells assessed as cell growth inhibition by measuring lethal concentration by MTT assay; assay type: functional; conditions: read-out: LC50 (the source's name)
[16] = tested on: HOP-62; assay: Cytotoxicity against human HOP-62 cells assessed as cell growth inhibition by measuring lethal concentration by MTT assay; assay type: functional; conditions: read-out: LC50 (the source's name)
[17] = tested on: A549; assay: Cytotoxicity against human A549 cells assessed as cell growth inhibition by measuring lethal concentration by MTT assay; assay type: functional; conditions: read-out: LC50 (the source's name)
[18] = tested on: Hs-578T; assay: Cytotoxicity against human Hs-578T cells assessed as cell growth inhibition by measuring lethal concentration by MTT assay; assay type: functional; conditions: read-out: LC50 (the source's name)
[19] = Cytotoxicity against human […] cells assessed as cell growth inhibition by measuring lethal concentration by MTT assay; assay type: functional; conditions: read-out: LC50 (the source's name)
[20] = tested on: SN12C; assay: Cytotoxicity against human SN12C cells assessed as cell growth inhibition by measuring lethal concentration by MTT assay; assay type: functional; conditions: read-out: LC50 (the source's name)
[21] = tested on: NCI-H23; assay: Cytotoxicity against human NCI-H23 cells assessed as cell growth inhibition by measuring lethal concentration by MTT assay; assay type: functional; conditions: read-out: LC50 (the source's name)
[22] = tested on: UACC-257; assay: Cytotoxicity against human UACC-257 cells assessed as cell growth inhibition by measuring lethal concentration by MTT assay; assay type: functional; conditions: read-out: LC50 (the source's name)
[23] = tested on: COLO 205; assay: Cytotoxicity against human COLO 205 cells assessed as cell growth inhibition by measuring lethal concentration by MTT assay; assay type: functional; conditions: read-out: LC50 (the source's name)
[24] = tested on: Malme-3M; assay: Cytotoxicity against human Malme-3M cells assessed as cell growth inhibition by measuring lethal concentration by MTT assay; assay type: functional; conditions: read-out: LC50 (the source's name)
[25] = tested on: IGROV-1; assay: Cytotoxicity against human IGROV-1 cells assessed as cell growth inhibition by measuring lethal concentration by MTT assay; assay type: functional; conditions: read-out: LC50 (the source's name)
[26] = tested on: NCI-H226; assay: Cytotoxicity against human NCI-H226 cells assessed as cell growth inhibition by measuring lethal concentration by MTT assay; assay type: functional; conditions: read-out: LC50 (the source's name)
[27] = tested on: M14; assay: Cytotoxicity against human M14 cells assessed as cell growth inhibition by measuring lethal concentration by MTT assay; assay type: functional; conditions: read-out: LC50 (the source's name)
[28] = tested on: HCT-15; assay: Cytotoxicity against human HCT-15 cells assessed as cell growth inhibition by measuring lethal concentration by MTT assay; assay type: functional; conditions: read-out: LC50 (the source's name)
[29] = tested on: NCI-H460; assay: Cytotoxicity against human NCI-H460 cells assessed as cell growth inhibition by measuring lethal concentration by MTT assay; assay type: functional; conditions: read-out: LC50 (the source's name)
[30] = tested on: HT-29; assay: Cytotoxicity against human HT-29 cells assessed as cell growth inhibition by measuring lethal concentration by MTT assay; assay type: functional; conditions: read-out: LC50 (the source's name)
[31] = tested on: EKVX; assay: Cytotoxicity against human EKVX cells assessed as cell growth inhibition by measuring lethal concentration by MTT assay; assay type: functional; conditions: read-out: LC50 (the source's name)
[32] = tested on: UACC-62; assay: Cytotoxicity against human UACC-62 cells assessed as cell growth inhibition by measuring lethal concentration by MTT assay; assay type: functional; conditions: read-out: LC50 (the source's name)
[33] = tested on: UO-31; assay: Cytotoxicity against human UO-31 cells assessed as cell growth inhibition by measuring lethal concentration by MTT assay; assay type: functional; conditions: read-out: LC50 (the source's name)
[34] = tested on: BT-549; assay: Cytotoxicity against human BT-549 cells assessed as cell growth inhibition by measuring lethal concentration by MTT assay; assay type: functional; conditions: read-out: LC50 (the source's name)
[35] = tested on: MDA-N; assay: Cytotoxicity against human MDA-N cells assessed as cell growth inhibition by measuring lethal concentration by MTT assay; assay type: functional; conditions: read-out: LC50 (the source's name)
[36] = tested on: KM12; assay: Cytotoxicity against human KM12 cells assessed as cell growth inhibition by measuring lethal concentration by MTT assay; assay type: functional; conditions: read-out: LC50 (the source's name)
[37] = tested on: NCI-H522; assay: Cytotoxicity against human NCI-H522 cells assessed as cell growth inhibition by measuring lethal concentration by MTT assay; assay type: functional; conditions: read-out: LC50 (the source's name)
[38] = tested on: MDA-MB-435; assay: Cytotoxicity against human MDA-MB-435 cells assessed as cell growth inhibition by measuring lethal concentration by MTT assay; assay type: functional; conditions: read-out: LC50 (the source's name)
[39] = tested on: HCC 2998; assay: Cytotoxicity against human HCC 2998 cells assessed as cell growth inhibition by measuring lethal concentration by MTT assay; assay type: functional; conditions: read-out: LC50 (the source's name)
[40] = tested on: OVCAR-5; assay: Cytotoxicity against human OVCAR-5 cells assessed as cell growth inhibition by measuring lethal concentration by MTT assay; assay type: functional; conditions: read-out: LC50 (the source's name)
[41] = tested on: OVCAR-3; assay: Cytotoxicity against human OVCAR-3 cells assessed as cell growth inhibition by measuring lethal concentration by MTT assay; assay type: functional; conditions: read-out: LC50 (the source's name)
[42] = tested on: SK-MEL-2; assay: Cytotoxicity against human SK-MEL-2 cells assessed as cell growth inhibition by measuring lethal concentration by MTT assay; assay type: functional; conditions: read-out: LC50 (the source's name)
[43] = tested on: 786-0; assay: Cytotoxicity against human 786-0 cells assessed as cell growth inhibition by measuring lethal concentration by MTT assay; assay type: functional; conditions: read-out: LC50 (the source's name)
[44] = tested on: HOP-92; assay: Cytotoxicity against human HOP-92 cells assessed as cell growth inhibition by measuring lethal concentration by MTT assay; assay type: functional; conditions: read-out: LC50 (the source's name)
[45] = tested on: SF-295; assay: Cytotoxicity against human SF-295 cells assessed as cell growth inhibition by measuring lethal concentration by MTT assay; assay type: functional; conditions: read-out: LC50 (the source's name)
[46] = tested on: TK-10; assay: Cytotoxicity against human TK-10 cells assessed as cell growth inhibition by measuring lethal concentration by MTT assay; assay type: functional; conditions: read-out: LC50 (the source's name)
[47] = tested on: DU-145; assay: Cytotoxicity against human DU-145 cells assessed as cell growth inhibition by measuring lethal concentration by MTT assay; assay type: functional; conditions: read-out: LC50 (the source's name)
[48] = tested on: SNB-75; assay: Cytotoxicity against human SNB-75 cells assessed as cell growth inhibition by measuring lethal concentration by MTT assay; assay type: functional; conditions: read-out: LC50 (the source's name)
[49] = tested on: SF-539; assay: Cytotoxicity against human SF-539 cells assessed as cell growth inhibition by measuring lethal concentration by MTT assay; assay type: functional; conditions: read-out: LC50 (the source's name)
[50] = tested on: OVCAR-8; assay: Cytotoxicity against human OVCAR-8 cells assessed as cell growth inhibition by measuring lethal concentration by MTT assay; assay type: functional; conditions: read-out: LC50 (the source's name)
[51] = tested on: SNB-19; assay: Cytotoxicity against human SNB-19 cells assessed as cell growth inhibition by measuring lethal concentration by MTT assay; assay type: functional; conditions: read-out: LC50 (the source's name)
[52] = tested on: CCRF-CEM; assay: Cytotoxicity against human CCRF-CEM cells assessed as cell growth inhibition by measuring lethal concentration by MTT assay; assay type: functional; conditions: read-out: LC50 (the source's name)
[53] = tested on: SK-MEL-5; assay: Cytotoxicity against human SK-MEL-5 cells assessed as cell growth inhibition by measuring lethal concentration by MTT assay; assay type: functional; conditions: read-out: LC50 (the source's name)
[54] = tested on: OVCAR-4; assay: Cytotoxicity against human OVCAR-4 cells assessed as cell growth inhibition by measuring lethal concentration by MTT assay; assay type: functional; conditions: read-out: LC50 (the source's name)
[55] = tested on: HCT-116; assay: Cytotoxicity against human HCT-116 cells assessed as cell growth inhibition by measuring lethal concentration by MTT assay; assay type: functional; conditions: read-out: LC50 (the source's name)
[56] = tested on: SK-OV-3; assay: Cytotoxicity against human SK-OV-3 cells assessed as cell growth inhibition by measuring lethal concentration by MTT assay; assay type: functional; conditions: read-out: LC50 (the source's name)

COc1cc2c(cc1OCCCCCC(=O)N1C[C@H](CCl)c3c1cc(O)c1ccccc31)N=C[C@@H]1CCCN1C2=O
IC50 [1]: 7.8 pM

C=C1C[C@@H]2CC[C@@]34C[C@H]5O[C@H]6[C@@H](O3)[C@H]3O[C@H](CC[C@@H]3O[C@H]6[C@H]5O4)CC(=O)C[C@@H]3[C@@H](OC)[C@@H](C[C@H](O)CN)O[C@H]3C[C@H]3O[C@@H](CC[C@@H]1O2)C[C@@H](C)C3=C [ERIBULIN]
IC50 [2]: 13000 pM

C=C1C[C@H]2C=Nc3cc(OCCCCCCCCCCOc4cc5c(cc4OC)C(=O)N4CC(=C)C[C@H]4C=N5)c(OC)cc3C(=O)N2C1
CC50 [3]: 140 pM | CC50 [4]: 140 pM | CC50 [5]: 140 pM | CC50 [6]: 140 pM | CC50 [7]: 140 pM | CC50 [8]: 140 pM | CC50 [9]: 140 pM | CC50 [10]: 140 pM | CC50 [11]: 140 pM | CC50 [12]: 140 pM | CC50 [13]: 140 pM | CC50 [14]: 140 pM | CC50 [15]: 140 pM | CC50 [16]: 140 pM | CC50 [17]: 140 pM | CC50 [18]: 140 pM | CC50 [19]: 140 pM | CC50 [20]: 140 pM | CC50 [21]: 140 pM | CC50 [22]: 140 pM | CC50 [23]: 140 pM | CC50 [24]: 140 pM | CC50 [25]: 140 pM | CC50 [26]: 140 pM | CC50 [27]: 140 pM | CC50 [28]: 140 pM | CC50 [29]: 140 pM | CC50 [30]: 140 pM | CC50 [31]: 140 pM | CC50 [32]: 140 pM | CC50 [33]: 140 pM | CC50 [34]: 140 pM | CC50 [35]: 140 pM | CC50 [36]: 140 pM | CC50 [37]: 140 pM | CC50 [38]: 140 pM | CC50 [39]: 140 pM | CC50 [40]: 140 pM | CC50 [41]: 140 pM | CC50 [42]: 140 pM | CC50 [43]: 140 pM | CC50 [44]: 140 pM | CC50 [45]: 140 pM | CC50 [46]: 140 pM | CC50 [47]: 140 pM | CC50 [48]: 140 pM | CC50 [49]: 140 pM | CC50 [50]: 140 pM | CC50 [51]: 140 pM | CC50 [52]: 140 pM | CC50 [53]: 140 pM | CC50 [54]: 140 pM | CC50 [55]: 140 pM | CC50 [56]: 140 pM
